As usually defined, the EC50 is the concentration giving half of the maximal effect. A word on the IC50: it is the point on the concentration scale where inhibition reaches its midpoint. A lower IC50 goes with greater potency.

The structures appear in SMILES notation. The source made the active and inactive calls. No cut-off for these calls is given here.

From ChEMBL document CHEMBL1140562, “Anti-AIDS agents 73: structure-activity relationship study and asymmetric synthesis of 3-O-monomethylsuccinyl-betulinic acid derivatives” (Bioorg Med Chem Lett, 2007) come the findings set out here.

For series [1], the system named is Human immunodeficiency virus 1. Briefly: Antiviral activity against HIV1. Type of series: functional, organism-based.
The subject of series [2] is MT2. In words: Cytotoxicity against MT2 cells by XTT assay. It counts as functional, cell-based. The conditions noted are these: Homo sapiens.
The nature of series [3]: Therapeutic index, ratio of IC50 for MT2 cells to EC50 for HIV1. The conditions noted are these: human, read-out: Ratio IC50/EC50. Type of series: cell-based.

With `C=C(C)[C@@H]1CC[C@]2(C(=O)O)CC[C@]3(C)[C@H](CC[C@@H]4[C@@]5(C)CC[C@H](OC(=O)C[C@H](C)C(=O)O)C(C)(C)[C@@H]5CC[C@]43C)[C@@H]12`, in series [1], the midpoint of the response, the EC50, lay at 0.0087 µM. This compound also had a concentration for half-maximal inhibition (IC50) in series [2] of 32.8 µM. Further, the selectivity ratio in series [3] came to 6270.
In the same order, the values of `C=C(C)[C@@H]1CC[C@]2(C(=O)O)CC[C@]3(C)[C@H](CC[C@@H]4[C@@]5(C)CC[C@H](OC(=O)[C@@H](C)CC(=O)O)C(C)(C)[C@@H]5CC[C@]43C)[C@@H]12` are 0.44 µM, above 43.8 µM and 100.
The matching figures for `C=C(C)[C@@H]1CC[C@]2(C(=O)O)CC[C@]3(C)[C@H](CC[C@@H]4[C@@]5(C)CC[C@H](OC(=O)C[C@@H](C)C(=O)O)C(C)(C)[C@@H]5CC[C@]43C)[C@@H]12`: 0.12 µM, above 43.8 µM and 961.
In the case of `C=C(C)[C@@H]1CC[C@]2(C(=O)O)CC[C@]3(C)[C@H](CC[C@@H]4[C@@]5(C)CC[C@H](OC(=O)C[C@H](C)CO)C(C)(C)[C@@H]5CC[C@]43C)[C@@H]12`, the result in series [1] was inactive. The IC50 in series [2] is above 44.9 µM.
In series [1], `C=C(C)[C@@H]1CC[C@]2(C(=O)O)CC[C@]3(C)[C@H](CC[C@@H]4[C@@]5(C)CC[C@H](OC(=O)CC(C)(C)C(=O)O)C(C)(C)[C@@H]5CC[C@]43C)[C@@H]12` [BEVIRIMAT] returned an EC50 of 0.0013 µM. Besides, the IC50 in series [2] was above 42.8 µM. Besides, the selectivity ratio in series [3] worked out at 30600.
For `Cc1cn([C@H]2C[C@H](N=[N+]=[N-])[C@@H](CO)O2)c(=O)[nH]c1=O` [ZIDOVUDINE], the EC50 in series [1] worked out at 0.34 µM. For the same compound, in series [2], the IC50 is 1870 µM.
In series [1], `C=C(C)[C@@H]1CC[C@]2(C(=O)O)CC[C@]3(C)[C@H](CC[C@@H]4[C@@]5(C)CC[C@H](OC(=O)CC(C)C(=O)O)C(C)(C)[C@@H]5CC[C@]43C)[C@@H]12` (stereo partly specified) returned an EC50 of 0.016 µM. The compound further registered an IC50 in series [2] above 44.9 µM. Also, in series [3], the selectivity ratio stood at 5320.
As to `C=C(C)[C@@H]1CC[C@]2(C(=O)O)CC[C@]3(C)[C@H](CC[C@@H]4[C@@]5(C)CC[C@H](OC(=O)[C@H](C)CC(=O)O)C(C)(C)[C@@H]5CC[C@]43C)[C@@H]12`, in series [1], the result was inactive. This compound also showed an IC50 in series [2] above 43.8 µM.
